Data on one compound can be found in US20230250094A1, “SMALL MOLECULE INHIBITORS OF TDP-43 ACTIVITY AND USES THEREOF” (Arizona Board of Regents on Behalf of the University of …, priority 2020, published 2023).

Assay [1] has as its system Drosophila overexpressing TDP-43. In words: Climbing (negative geotaxis) assay in Drosophila model of ALS overexpressing TDP-43. Conditions: fly food supplemented with 50 μM. The format is in vivo.
The subject of another assay is EGFP. In words: EGFP control-transfected rodent primary cortical neurons, fluorescence. The format is cell-based, rat. To be noted: 5 to 100 μM. The method, then:
(§1) FIG. 6. nTRD22 effect on primary cortical neurons. Confocal images of rodent primary cortical neurons with transfected TDP43-EGFP with A. DMSO, or B. […] nTRD22. Quantitation of GFP signal in TDP-43-EGFP (C) or EGFP (D) transfected primary neurons treated with increasing concentration of nTRD22 or DMSO. Data is presented as mean±SEM (n≥183 neurons from 8 technical and 3 biological replicates). Statistical difference was assessed by a Kruskal-Wallis test (*** p<0.001; **p=0.01).
(§2) To test this, TDP-43 fused to enhanced green fluorescent protein (TDP43-EGFP) was expressed in rodent primary cortical neurons, applied nTRD22 at concentrations ranging from 5 to 100 μM, and imaged GFP positive cells by automated fluorescence microscopy^1819. […] No changes in the fluorescence of control cells transfected with EGFP was observed (FIG. 6D).
(§3) Cell culture and transfection. […]
(§4) Fluorescence microscopy. […]
(§5) Image analysis. Custom ImageJ/Fiji macros and Python scripts (described in PMC6050042) were used to identify neurons and draw regions of interest (ROIs) based upon size, morphology, and fluorescence intensity. Additional scripts were used to identify and draw regions of interest (ROIs) surrounding each cell, and measure fluorescence intensity within individual ROIs. […]

The target in assay [2] is T1, TDP-431-260 (Homo sapiens, UniProt Q13148).
T1 construct: Human TDP-431-260 and TDP43102-269 were expressed as described in our previous studies; made in house
T1 sequence (Q13148 1-260 limits assumed): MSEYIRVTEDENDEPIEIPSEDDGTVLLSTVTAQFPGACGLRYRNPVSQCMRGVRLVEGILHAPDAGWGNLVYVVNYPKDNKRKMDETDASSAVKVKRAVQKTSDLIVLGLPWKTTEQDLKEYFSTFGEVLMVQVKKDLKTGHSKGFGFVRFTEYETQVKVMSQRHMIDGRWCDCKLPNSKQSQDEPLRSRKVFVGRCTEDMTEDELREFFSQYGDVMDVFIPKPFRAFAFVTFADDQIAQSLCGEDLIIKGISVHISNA
In words: Microscale thermophoresis (MST). The assay is classed as binding. Conditions: NT-647 labeled TDP431-260, 0.03 μM-1 mM compound, mean±SD n=3; read-out: apparent Kd. The method, then:
FIG. 3. Modeling of binding and affinity of nTRD22 for TDP-43. A. Structure of N-(2-(3-hydroxypiperidin-1-yl)ethyl)-5-((3-(trifluoromethyl)phenoxy)methyl)isoxazole-3-carboxamide (nTRD22). B. 2D representation of nTRD22 binding pocket in TDP-43 NTD. C. MST values from thermographs of NT-647 labeled TDP431-260 in presence of increasing concentrations (0.03 μM-1 mM) of nTRD22 were used to determine dissociation constant for binding of nTRD22 to TDP431-260. […] Data is presented as mean±SD (n=3).
In-silico docking of nTRD22 predicted interactions with Q3, Y43, S48, G59, and A66 (FIG. 3A). ^1H-NMR of nTRD22 was used to evaluate the on-resonance energy transfer from STD-NMR of nTRD22 with TDP-431-260. The peaks seen in the STD-NMR spectrum were in the region of the benzyl group (ii, 6.9-7.2 ppm) (FIG. 2C) confirming the […] interaction of the benzene group of nTRD22 with Tyr43, predicted by virtual screening.
Microscale Thermophoresis (MST). Microscale thermophoresis experiments were performed using a NanoTemper Monolith Instrument (NT.115), similarly to Frangois-Moutal, L.; et al., ACS Chem. Biol. 2019, 14, 2006-2013.

The target in a further assay is T2, TDP43102-269 (Homo sapiens, UniProt Q13148).
T2 construct: made in house
T2 sequence (Q13148 102-269): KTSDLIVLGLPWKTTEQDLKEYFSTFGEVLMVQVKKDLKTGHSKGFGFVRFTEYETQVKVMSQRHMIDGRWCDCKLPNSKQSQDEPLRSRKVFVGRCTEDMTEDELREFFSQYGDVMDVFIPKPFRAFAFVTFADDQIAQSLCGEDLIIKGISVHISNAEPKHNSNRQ
In words: STD-NMR negative control on TDP43 102-269 lacking the NTD. The assay is classed as binding. Conditions: same conditions, negative control construct. The method, then:
(§6) FIG. 2. STD-NMR screening for compounds. A. Two different constructs were used for STD-NMR screening. 1D ^1H STD NMR showing on-resonance difference spectrum of 500 μM of compounds nTRD09-16 (B) or nTRD19-28 (C) with 5 μM TDP431-260. D. Positive hits from the first round of STD-NMR screening were tested against TDP43102-269 in the same conditions. Asterisks indicate positive signal.
(§7) Saturation transfer difference nuclear magnetic resonance (STD-NMR) spectroscopy was then used to screen the binding of the compounds to TDP-431-260. As a negative control, binding to TDP43102-269 lacking the NTD was also determined (FIG. 2A). […]
(§8) Saturation Transfer Difference Nuclear Magnetic Resonance (STD-NMR). Spectroscopy for small molecule binding. 1D ^1H STD-NMR was performed exactly as previously described (see, Frangois-Moutal, L.; et al., ACS Chem. Biol. 2019, 14, 2006-2013; Frangois-Moutal, L.; et al., ACS Chem. Biol. 2018, 13, 3000-3010).

In assay [3] the target is T3, TDP-431-260 binding to its canonical RNA sequence (UG6) (Homo sapiens, UniProt Q13148).
T3 construct: TDP-431-260-His (0.75 nM) and a single concentration of biotinylated-UG6 RNA (0.6 nM); made in house
T3 sequence (Q13148 1-260 limits assumed): as the sequence (Q13148 1-260 limits assumed) above
In words: Amplified luminescent proximity homogeneous alpha assay (ALPHA), RNA/TDP-43 disruption. To be noted: TDP-431-260-His 0.75 nM, biotinylated-UG6 RNA 0.6 nM; read-out: IC50 of disruption of TDP-431-260 / UG6 RNA interaction. On the procedure: FIG. 5. RNA/TDP-43 disruption by nTRD22. A concentration-dependent curve was obtained for nTRD22's disruption of nucleic acid-TDP-431-260 interaction at a single RNA concentration (0.6 nM). Data is represented as mean±SEM (n=3).
To define which residues in the RRM domains were affected, the chemical-shift perturbations (CSP) induced by nTRD22 were mapped onto the known structure of TDP-43102-269 (PDB: 4bs2^15) using a color gradient (FIG. 4F,G). […] More precisely, L106/1107 and G148/V150 are part of RNP-2 and RNP-1 of RRM1 respectively, while C196 is part of RNP-2 in RRM2^16. Moreover, C173 is also shown to be affected in presence of RNA^15. […] It should be noted that in repeated experiments, different residues are shifted and although one representative spectrum is shown here (FIG. 4), the average shift from three experiments are also reported (FIG. 10). […] To test this, an amplified luminescent proximity homogeneous (alpha) assay recently developed for another compound targeting TDP-43^17 was used. TDP-431-260 binding to its canonical RNA sequence (UG6) was measured with ranging concentrations of compound and nTRD22 was able to inhibit 50% of the interaction with an IC50 of ˜100 μM (FIG. 5).
Amplified luminescent proximity homogeneous alpha assay (ALPHA). […]

Assay [4] concerns the target T4, TDP-43102-269 (RRM region) (Homo sapiens, UniProt Q13148).
T4 construct: made in house
In words: 2D 15N-HSQC NMR of TDP43 102-269 (RRM region) with compound. The assay is classed as binding. Conditions: 4:1 molar ratio. The method, then:
(§9) To further characterize where nTRD22 binds on TDP-43, perturbations were measured using a 2D ^15N-HSQC NMR with increasing concentrations of nTRD22, up to a 8:1 molar ratio of nTRD22:TDP-431-260 (FIG. 4). […] To determine if these shifts were due to direct binding of nTRD22 to TDP-43102-269 (RRM region), a 2D ^15HSQC-NMR on TDP43102-269 with nTRD22 at a 4:1 molar ratio was collected (FIG. 4D, E).
(§10) Heteronuclear Single Quantum Correlation-NMR (HSQC-NMR). NMR spectra were acquired in 40 mM HEPES pH 6.5, 500 mM NaCl, 4 mM DTT with 10% D20 at 100 μM protein concentrations using 5 mm Shigemi NMR tubes. NMR data were collected at 298 K on a Bruker Avance NEO 600 MHz and 800 MHz spectrometers with TCI-H&F/C/N probe. NMR processing and analysis was done using NMRpipe, NMRDraw and NMRFAM-Sparky. Transverse relaxation optimized spectroscopy (TROSY) was used for all HSQC experiments.

Assay [5] has as its target T1, TDP-431-260. In words: 2D 15N-HSQC NMR of TDP-43 1-260 with compound. The assay is classed as binding. The method, then:
2D ^15N-HSQC NMR spectrum of each positive hit was tested to further define the binding sites of the small molecule interactions with TDP-43 (FIG. 9). Using TDP-431-260, small molecules were added at a 4:1 molar ratio.
as §9, §10

A further assay has as its target T5, TDP43-EGFP (Homo sapiens, UniProt Q13148).
T5 construct: expressed in transfected cells; host or cells: primary cortical neurons from embryonic day 20-21 Long Evans rat pups
In words: TDP43-EGFP in rodent primary cortical neurons, automated fluorescence microscopy. The format is cell-based, rat. To be noted: 5 to 100 μM. The method, then: as §1, §2, §3, §4, §5

Assay [6] concerns the target T1, TDP-431-260. In words: STD-NMR screening of compound binding to TDP-43 1-260. To be noted: 500 μM compound, 5 μM protein. On the procedure:
as §6, §7, §8

“Also recorded” adds a separate entry of the source.

T5 sequence (Q13148 whole entry): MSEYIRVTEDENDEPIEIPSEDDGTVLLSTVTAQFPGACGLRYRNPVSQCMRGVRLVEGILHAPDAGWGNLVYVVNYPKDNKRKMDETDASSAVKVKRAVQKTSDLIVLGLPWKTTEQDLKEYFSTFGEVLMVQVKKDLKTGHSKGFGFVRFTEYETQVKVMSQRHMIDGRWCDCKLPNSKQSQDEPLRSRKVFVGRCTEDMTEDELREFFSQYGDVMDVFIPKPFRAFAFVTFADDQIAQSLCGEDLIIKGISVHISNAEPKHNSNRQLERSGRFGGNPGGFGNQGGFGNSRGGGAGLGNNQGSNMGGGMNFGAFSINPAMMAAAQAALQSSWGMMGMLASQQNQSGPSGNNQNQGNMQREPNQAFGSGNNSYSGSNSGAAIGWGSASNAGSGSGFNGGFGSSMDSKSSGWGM
T4 sequence (Q13148 102-269 limits assumed): as the sequence (Q13148 102-269) above

With `O=C(NCCN1CCCC(O)C1)c1cc(COc2cccc(C(F)(F)F)c2)on1` (stereo not drawn) [nTRD22, N-(2-(3-hydroxypiperidin-1-yl)ethyl)-5-((3-(trifluoromethyl)phenoxy)methyl)isoxazole-3-carboxamide], in [1] (versus DMSO 0.05%), the “climbing / motor performance in young (5-6 dpe) and aged (19-20 dpe) flies” value is given as “rescue effect was increased in aged flies; also recorded: increased motor performance”. Moreover, the “climbing / motor performance versus DMSO treated or naive flies” value in assay [1] (n=60) is on record as “significantly able to rescue climbing defects; also recorded: increased motor performance”. Further, the “fluorescence of control cells transfected with EGFP” value in the assay with EGFP is “No changes”. For the same compound, the Kd on TDP-431-260 [2] amounted to 145 ± 3 µM. Further, the “STD-NMR binding to TDP43102-269 (lacking NTD)” value on TDP43102-269 is reported as “did not”. In addition, the IC50 in assay [3] is ~100 µM. In assay [4], the “2D 15N-HSQC chemical shifts on TDP43102-269” value is “No shifts were observed”. In addition, the “2D 15N-HSQC: aggregation / chemical shift perturbations” value at TDP-431-260 [5] (compound:protein 4:1 molar ratio, 100 μM protein) was “no protein aggregation with visible chemical shift perturbations”. Moreover, the “2D 15N-HSQC chemical shifts on titration” value at TDP-431-260 [5] (increasing concentrations up to 8:1 molar ratio nTRD22:TDP-431-260) is reported as “the majority of them occurring in the RRM region of the protein”. Also, at TDP43-EGFP, the “TDP43-EGFP steady state levels (GFP signal)” value is listed as “dose-dependent reduction” and the “intranuclear TDP43-EGFP droplet-like structures” value is given as “formation of intranuclear TDP43-EGFP droplet-like structures”. The “STD-NMR binding to TDP-431-260” value at TDP-431-260 [6] is listed as “positive hits”.
